Experiments:
Format in all cases: in vivo
[1] = system: barnyardgrass (Echinochloa crus-galli); test: Test A preemergence soil spray, visual injury rating 0-100; conditions: 0 to 100 scale, 10 days
Method in brief: (§1)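 Seeds sown in loam-sand blend got a preemergence directed soil spray, or emerged plants (2-10 cm, one- to two-leaf) got a postemergence spray, of compound in non-phytotoxic solvent with surfactant. After 10 days in greenhouse, injury rated visually versus untreated controls on a 0 (no effect) to 100 (complete control) scale.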

[2] = system: blackgrass (Alopecurus myosuroides); test: as above; conditions: 0 to 100 scale, 10 days
Method in brief: as §1

corn (Zea mays) [3] = test: as above; conditions: 0 to 100 scale, 10 days
Method in brief: as §1

[4] = system: green foxtail (Setaria viridis); test: as above; conditions: 0 to 100 scale, 10 days
Method in brief: as §1

kochia (Bassia scoparia) [5] = test: as above; conditions: 0 to 100 scale, 10 days
Method in brief: as §1

[6] = system: oat, wild (wild oat, Avena fatua); test: as above; conditions: 0 to 100 scale, 10 days
Method in brief: as §1

[7] = system: palmer (palmer amaranth, palmer pigweed, Amaranthus palmeri); test: as above; conditions: 0 to 100 scale, 10 days
Method in brief: as §1

[8] = system: ragweed (common ragweed, Ambrosia artemisiifolia); test: as above; conditions: 0 to 100 scale, 10 days
Method in brief: as §1

[9] = system: ryegrass, Italian (italian ryegrass, Lolium multiflorum); test: as above; conditions: 0 to 100 scale, 10 days
Method in brief: as §1

soybean (Glycine max) [10] = test: as above; conditions: 0 to 100 scale, 10 days
Method in brief: as §1

[11] = system: wheat (Triticum aestivum); test: as above; conditions: 0 to 100 scale, 10 days
Method in brief: as §1

[12] = system: barnyardgrass (Echinochloa crus-galli); test: Test A postemergence application, visual injury rating 0-100; conditions: Postemergence
Method in brief: as §1

[13] = system: blackgrass (Alopecurus myosuroides); test: as above; conditions: Postemergence
Method in brief: as §1

corn (Zea mays) [14] = test: as above; conditions: Postemergence
Method in brief: as §1

[15] = system: galium (catchweed bedstraw, Galium aparine); test: as above; conditions: Postemergence
Method in brief: as §1

[16] = system: green foxtail (Setaria viridis); test: as above; conditions: Postemergence
Method in brief: as §1

[17] = system: horseweed (Erigeron canadensis); test: as above; conditions: Postemergence
Method in brief: as §1

kochia (Bassia scoparia) [18] = test: as above; conditions: Postemergence
Method in brief: as §1

[19] = system: oat, wild (wild oat, Avena fatua); test: as above; conditions: Postemergence
Method in brief: as §1

[20] = system: palmer (palmer amaranth, palmer pigweed, Amaranthus palmeri); test: as above; conditions: Postemergence
Method in brief: as §1

[21] = system: ragweed (common ragweed, Ambrosia artemisiifolia); test: as above; conditions: Postemergence
Method in brief: as §1

[22] = system: ryegrass, Italian (italian ryegrass, Lolium multiflorum); test: as above; conditions: Postemergence
Method in brief: as §1

soybean (Glycine max) [23] = test: as above; conditions: Postemergence
Method in brief: as §1

[24] = system: wheat (Triticum aestivum); test: as above; conditions: Postemergence
Method in brief: as §1

[25] = system: barnyardgrass (Echinochloa crusgalli); test: Test B flooded paddy test, visual plant response rating 0-100; conditions: 250 g ai/ha, Flood, applied to paddy water, evaluated after 13 days
Method in brief: (§2)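 Plants were grown to the 2-leaf stage, then pots were flooded to 3 cm above the soil and compound was applied directly to the paddy water, with that depth kept throughout.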

[26] = system: ducksalad (Heteranthera limosa); test: as above; conditions: 250 g ai/ha, Flood, applied to paddy water, evaluated after 13 days
Method in brief: as §2

rice (Oryza sativa) = test: as above; conditions: 250 g ai/ha, Flood, applied to paddy water, evaluated after 13 days
Method in brief: as §2

[27] = system: sedge, umbrella (small-flower umbrella sedge, Cyperus difformis); test: as above; conditions: 250 g ai/ha, Flood, applied to paddy water, evaluated after 13 days
Method in brief: as §2

[28] = 8 g ai/ha, 10 days, 0 is no effect, 100 is complete control
[29] = 31 g ai/ha, greenhouse 10 days, 0 no effect, 100 complete control

CC1(C(=O)NC2C=CC(C(=O)NS(=O)(=O)C3CC3)C2)CN(c2cc(F)cc(F)c2)C(=O)O1 (stereo not shown) [Compound 87]
Barnyardgrass plant response rating ([1]; 8 g ai/ha): 0 | Barnyardgrass plant response rating ([1]; 31 g ai/ha): 90 | Blackgrass plant response rating ([2]; 8 g ai/ha): 10 | Blackgrass plant response rating ([2]; 31 g ai/ha): 20 | Corn plant response rating (corn (Zea mays) [3]; 8 g ai/ha): 0 | Corn plant response rating (corn (Zea mays) [3]; 31 g ai/ha): 0 | Foxtail, Green plant response rating ([4]; 8 g ai/ha): 30 | Foxtail, Green plant response rating ([4]; 31 g ai/ha): 20 | Kochia plant response rating (kochia (Bassia scoparia) [5]; 8 g ai/ha): 0 | Kochia plant response rating (kochia (Bassia scoparia) [5]; 31 g ai/ha): 10 | Oat, Wild plant response rating ([6]; 8 g ai/ha): 0 | Oat, Wild plant response rating ([6]; 31 g ai/ha): 0 | Pigweed, Palmer plant response rating ([7]; 8 g ai/ha): 10 | Amaranth, Palmer (Pigweed, Palmer) plant response rating ([7]; 31 g ai/ha): 90 | Ragweed plant response rating ([8]; 8 g ai/ha): 10 | Ragweed plant response rating ([8]; 31 g ai/ha): 10 | Ryegrass, Italian plant response rating ([9]; 8 g ai/ha): 0 | Ryegrass, Italian plant response rating ([9]; 31 g ai/ha): 30 | Soybean plant response rating (soybean (Glycine max) [10]; 8 g ai/ha): 0 | Soybean plant response rating (soybean (Glycine max) [10]; 31 g ai/ha): 0 | Wheat plant response rating ([11]; 8 g ai/ha): 0 | Wheat plant response rating ([11]; 31 g ai/ha): 20 | Barnyardgrass plant response rating (0 to 100 scale) [12, 28]: 50 | Barnyardgrass plant response rating (0 to 100 scale) [12, 29]: 100 | Blackgrass plant response rating (0 to 100 scale) [13, 28]: 0 | Blackgrass plant response rating (0 to 100 scale) [13, 29]: 30 | Corn plant response rating (0 to 100 scale) (corn (Zea mays) [14]; [28]): 0 | Corn plant response rating (0 to 100 scale) (corn (Zea mays) [14]; [29]): 80 | Galium plant response rating (0 to 100 scale) [15, 28]: 50 | Galium plant response rating (0 to 100 scale) [15, 29]: 70 | Foxtail, Green plant response rating (0 to 100 scale) [16, 28]: 0 | Foxtail, Green plant response rating (0 to 100 scale) [16, 29]: 40 | Horseweed plant response rating (0 to 100 scale) [17, 28]: 20 | Horseweed plant response rating (0 to 100 scale) [17, 29]: 30 | Kochia plant response rating (0 to 100 scale) (kochia (Bassia scoparia) [18]; [28]): 30 | Kochia plant response rating (0 to 100 scale) (kochia (Bassia scoparia) [18]; [29]): 80 | Oat, Wild plant response rating (0 to 100 scale) [19, 28]: 20 | Oat, Wild plant response rating (0 to 100 scale) [19, 29]: 90 | Pigweed, Palmer plant response rating (0 to 100 scale) [20, 28]: 30 | Amaranth, Palmer / Pigweed, Palmer plant response rating (0 to 100 scale) [20, 29]: 70 | Ragweed plant response rating (0 to 100 scale) [21, 28]: 10 | Ragweed plant response rating (0 to 100 scale) [21, 29]: 50 | Ryegrass, Italian plant response rating (0 to 100 scale) [22, 28]: 20 | Ryegrass, Italian plant response rating (0 to 100 scale) [22, 29]: 50 | Soybean plant response rating (0 to 100 scale) (soybean (Glycine max) [23]; [28]): 20 | Soybean plant response rating (0 to 100 scale) (soybean (Glycine max) [23]; [29]): 50 | Wheat plant response rating (0 to 100 scale) [24, 28]: 0 | Wheat plant response rating (0 to 100 scale) [24, 29]: 100 | Plant response rating, Barnyardgrass (0 to 100 scale, 0 is no effect and 100 is complete control) [25]: 0 | Plant response rating, Ducksalad (0 to 100 scale, 0 is no effect and 100 is complete control) [26]: 0 | Plant response rating, Rice (0 to 100 scale, 0 is no effect and 100 is complete control) (rice (Oryza sativa)): 0 | Plant response rating, Sedge, Umbrella (0 to 100 scale, 0 is no effect and 100 is complete control) [27]: 0

Source: patent US20260285850A1, “SUBSTITUTED OXAZOLIDINONES AND IMIDAZOLINONES AS HERBICIDES” (FMC CORPORATION, priority 2023, published 2026)
